Assays:
Type in all cases: in vitro ADME
CYP2D6 = CYP2D6 (Homo sapiens, UniProt P10635); experiment: CYP2D6 inhibition
CYP3A4 = CYP3A4 (Homo sapiens, UniProt P08684); experiment: CYP3A4 inhibition
CYP2C9 = CYP2C9 (Homo sapiens, UniProt P11712); experiment: CYP2C9 inhibition
Sequence of CYP2C9 (P11712 whole entry, species assumed): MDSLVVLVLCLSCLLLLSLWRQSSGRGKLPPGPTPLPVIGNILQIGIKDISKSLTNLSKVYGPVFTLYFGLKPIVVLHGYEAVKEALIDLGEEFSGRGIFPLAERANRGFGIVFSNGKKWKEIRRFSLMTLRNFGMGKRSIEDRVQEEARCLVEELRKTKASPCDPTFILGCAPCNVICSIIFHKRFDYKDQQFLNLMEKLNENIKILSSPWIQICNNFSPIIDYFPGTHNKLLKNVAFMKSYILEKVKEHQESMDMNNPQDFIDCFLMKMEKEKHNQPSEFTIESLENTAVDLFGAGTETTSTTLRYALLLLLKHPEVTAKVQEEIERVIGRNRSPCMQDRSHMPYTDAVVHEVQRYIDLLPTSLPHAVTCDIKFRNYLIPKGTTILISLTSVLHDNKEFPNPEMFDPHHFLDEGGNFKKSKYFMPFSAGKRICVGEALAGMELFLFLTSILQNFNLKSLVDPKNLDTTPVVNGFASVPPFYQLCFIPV

Sequence of CYP2D6 (P10635 whole entry, species assumed): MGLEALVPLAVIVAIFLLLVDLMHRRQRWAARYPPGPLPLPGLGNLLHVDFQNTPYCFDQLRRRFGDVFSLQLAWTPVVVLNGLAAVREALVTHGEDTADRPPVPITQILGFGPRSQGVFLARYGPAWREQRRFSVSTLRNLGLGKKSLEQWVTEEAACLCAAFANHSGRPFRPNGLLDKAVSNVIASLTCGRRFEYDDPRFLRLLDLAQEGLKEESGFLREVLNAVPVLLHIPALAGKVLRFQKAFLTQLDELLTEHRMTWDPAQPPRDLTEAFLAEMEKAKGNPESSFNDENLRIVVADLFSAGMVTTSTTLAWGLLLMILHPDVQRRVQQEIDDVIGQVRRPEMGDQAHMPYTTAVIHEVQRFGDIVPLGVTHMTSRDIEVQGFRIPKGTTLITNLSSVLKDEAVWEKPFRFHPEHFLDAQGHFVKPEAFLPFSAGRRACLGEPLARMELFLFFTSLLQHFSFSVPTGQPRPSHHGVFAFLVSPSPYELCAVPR
Sequence of CYP3A4 (P08684 whole entry, species assumed): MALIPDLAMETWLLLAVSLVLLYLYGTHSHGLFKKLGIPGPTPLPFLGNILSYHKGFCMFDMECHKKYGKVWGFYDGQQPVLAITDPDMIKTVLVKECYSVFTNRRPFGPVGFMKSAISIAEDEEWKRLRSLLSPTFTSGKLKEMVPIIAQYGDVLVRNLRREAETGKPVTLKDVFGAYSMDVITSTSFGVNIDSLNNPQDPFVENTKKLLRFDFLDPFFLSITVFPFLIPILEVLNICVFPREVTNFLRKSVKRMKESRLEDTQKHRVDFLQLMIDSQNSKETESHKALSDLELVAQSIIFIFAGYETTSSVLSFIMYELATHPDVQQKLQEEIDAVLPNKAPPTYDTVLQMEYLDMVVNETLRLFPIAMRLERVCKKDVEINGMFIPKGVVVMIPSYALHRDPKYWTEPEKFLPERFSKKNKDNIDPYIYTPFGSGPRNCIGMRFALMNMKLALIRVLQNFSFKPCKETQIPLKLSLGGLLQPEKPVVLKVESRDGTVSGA

CYP2D6 % inhibition (CYP2D6): 8%
CYP3A4 % inhibition (CYP3A4): −21%
CYP2C9 % inhibition (CYP2C9): −36%
Compound: COc1ncccc1-c1ccc(NC(=O)NCCCCN2CCCCC2)cc1

— patent US20100016360A1 (WYETH, priority 2008, published 2010)
